Results: patent US10597366B2, “Aryl ethers and uses thereof” (Peloton Therapeutics, Inc., priority 2013, dated 2020)

Test system: 786-O-Hif-Luc cells (luciferase gene driven by multiple HIF responsive elements)
Assay: Luciferase Assay
Assay type: cell-based
Conditions: 24 h, 786-O-Hif-Luc cells, about 24 hours; read-out: Mean Luciferease EC50
Method: A pool of infected cells were then selected against 2 μg/mL of puromycin (P8833, Sigma) for 10 days followed by limited dilution to select single clones.
Each concentration was tested in triplicate. After about 24 hours, luciferase activity was determined using ONE-Glo Luciferase Assay Reagent (E6110, Promega) following the manufacturer's recommended procedure. EC50 were calculated by using Dotmatics software.

SMILES	EC50 [nM]
O=S(=O)(c1ccc(Oc2ccc(F)c(Cl)c2)c2c1[C@H](O)CC2)C(F)F [Compound 157, (1R)-4-(3-Chloro-4-fluoro-phenoxy)-7-(difluoromethylsulfonyl)indan-1-ol]	2500
NCc1c(S(=O)(=O)C(F)F)ccc(Oc2cc(F)cc(Cl)c2)c1Br [Compound 85, (2-Bromo-3-(3-chloro-5-fluorophenoxy)-6-((difluoromethyl)sulfonyl)phenyl)methanamine]	11800
O=S(=O)(c1ccc(Oc2cc(F)cc(F)c2)c2c1C=CC2)C(F)F [Compound 21, 4-((Difluoromethyl)sulfonyl)-7-(3,5-difluorophenoxy)-1H-indene]	1540
N#Cc1cccc(Oc2ccc(S(=O)(=O)C(F)F)c(CO)c2Cl)c1 [Compound 43, 3-(2-Chloro-4-((difluoromethyl)sulfonyl)-3-(hydroxymethyl)phenoxy)benzonitrile]	790
N#Cc1cc(F)cc(Oc2ccc(S(=O)(=O)C(F)F)cc2C#N)c1 [Compound 134, 2-(3-Cyano-5-fluorophenoxy)-5-((difluoromethyl)sulfonyl)benzonitrile]	2300
O=S(=O)(c1ccc(Oc2ccc(F)c(Cl)c2)c2c1[C@H](O)C(F)(F)C2)C(F)F [Compound 26, (S)-4-(3-Chloro-4-fluorophenoxy)-7-((difluoromethyl)sulfonyl)-2,2-difluoro-2,3-dihydro-1H-inden-1-ol]	68
O=S(=O)(c1ccc(Oc2cc(F)cc(F)c2)c(Cl)c1CO)C(F)F [Compound 168, (2-Chloro-6-((difluoromethyl)sulfonyl)-3-(3,5-difluorophenoxy)phenyl)methanol]	310
N#Cc1cc(F)cc(Oc2ccc(S(=O)(=O)C(F)F)c3c2CC(F)(F)[C@H]3N)c1 [Compound 207, (S)-3-((1-Amino-7-((difluoromethyl)sulfonyl)-2,2-difluoro-2,3-dihydro-1H-inden-4-yl)oxy)-5-fluorobenzonitrile]	830
O=S(=O)(c1ccc(Oc2cc(F)cc(Cl)c2)c(Br)c1C=NO)C(F)(F)F [Compound 107, 2-Bromo-3-(3-chloro-5-fluorophenoxy)-6-((trifluoromethyl)sulfonyl)benzaldehyde oxime]	520
COc1cc(F)cc(Oc2ccc(S(=O)(=O)C(F)F)c3c2CC[C@H]3O)c1 [Compound 6, (R)-7-((difluoromethyl)sulfonyl)-4-(3-fluoro-5-methoxyphenoxy)-2,3-dihydro-1H-inden-1-ol]	75
CS(=O)(=O)c1ccc(Oc2cc(F)cc(Cl)c2)c(C(F)F)c1CO [Compound 54, (3-(3-Chloro-5-fluorophenoxy)-2-(difluoromethyl)-6-(methylsulfonyl)phenyl)methanol]	350
CS(=O)(=O)c1ccc(Oc2cc(F)cc(C#N)c2)c(C#N)c1Cl [Compound 152, 2-chloro-6-(3-cyano-5-fluorophenoxy)-3-(methylsulfonyl)benzonitrile]	2100
N#Cc1cc(F)cc(Oc2ccc(S(=O)(=O)CCl)c3c2CC(F)(F)[C@H]3O)c1 [Compound 215, (S)-3-((7-((Chloromethyl)sulfonyl)-2,2-difluoro-1-hydroxy-2,3-dihydro-1H-inden-4-yl)oxy)-5-fluorobenzonitrile]	22
Cc1c(S(C)(=O)=O)ccc(Oc2cc(F)cc(Cl)c2)c1C(F)F [Compound 53, 1-(3-Chloro-5-fluorophenoxy)-2-(difluoromethyl)-3-methyl-4-(methylsulfonyl)benzene]	3300
CS(=O)(=O)c1ccc(Oc2cc(F)cc(Cl)c2)c2c1C(O)CC2 (stereo not shown) [Compound 90, 4-(3-Chloro-5-fluorophenoxy)-7-(methylsulfonyl)-2,3-dihydro-1H-inden-1-ol]	850
CS(=O)(=O)c1ccc(Oc2cc(F)cc(Cl)c2)c2c1[C@H](O)C(F)(F)C2 [Compound 160, (1S)-4-(3-Chloro-5-fluoro-phenoxy)-2,2-difluoro-7-methylsulfonyl-indan-1-ol]	10
COC(=O)/C=C/c1c(S(=O)(=O)C(F)(F)F)ccc(Oc2cc(F)cc(C#N)c2)c1C [Compound 147, Methyl (E)-3-[3-(3-cyano-5-fluoro-phenoxy)-2-methyl-6-(trifluoromethylsulfonyl)phenyl]prop-2-enoate]	7600
O=S(=O)(c1ccc(Oc2ccc(F)c(F)c2)c2c1C(O)CC2)C(F)(F)F (stereo not shown) [Compound 214, 4-(3,4-Difluorophenoxy)-7-((trifluoromethyl)sulfonyl)-2,3-dihydro-1H-inden-1-ol]	1270

Continued, values first:

EC50 [nM]	SMILES
2730	O=S(=O)(c1ccc(Oc2c(F)ccc3[nH]ncc23)c2c1[C@H](O)C(F)(F)C2)C(F)(F)F [Compound 264, (S)-2,2-Difluoro-4-((5-fluoro-1H-indazol-4-yl)oxy)-7-((trifluoromethyl)sulfonyl)-2,3-dihydro-1H-inden-1-ol]
1000	CS(=O)(=O)c1ccc(Oc2cc(F)cc(C#N)c2)c2c1[C@H](O)[C@H](F)[C@H]2F [Compound 294, 3-[(1S,2S,3S)-2,3-difluoro-1-hydroxy-7-methylsulfonyl-indan-4-yl]oxy-5-fluoro-benzonitrile]
100	N#CN=S(=O)(CF)c1ccc(Oc2cc(F)cc(C#N)c2)c2c1[C@H](O)C(F)(F)C2 (single isomer, unassigned) [Compound 285]
2800	C[C@@]1(F)Cc2c(Oc3cc(F)cc(C#N)c3)ccc(S(C)(=O)=O)c2[C@@H]1O [Compound 300, 3-fluoro-5-(((1S,2R)-2-fluoro-1-hydroxy-2-methyl-7-(methylsulfonyl)-2,3-dihydro-1H-inden-4-yl)oxy)benzonitrile]
1710	O=S(=O)(c1ccc(Oc2c(F)ccc3[nH]ncc23)c2c1C(O)C(F)(F)C2)C(F)(F)F (stereo not shown) [Compound 244, 2,2-Difluoro-4-((5-fluoro-1H-indazol-4-yl)oxy)-7-((trifluoromethyl)sulfonyl)-2,3-dihydro-1H-inden-1-ol]
26	O=S(=O)(c1ccc(Oc2ccc(F)c(Cl)c2)c2c1[C@H](O)C(F)(F)C2)C(F)(F)F [Compound 221, (S)-4-(3-Chloro-4-fluorophenoxy)-2,2-difluoro-7-((trifluoromethyl)sulfonyl)-2,3-dihydro-1H-inden-1-ol]
140	O=S(=O)(c1ccc(Oc2ccc(F)c3[nH]ncc23)c2c1C(O)C(F)(F)C2)C(F)(F)F (stereo not shown) [Compound 241, 2,2-Difluoro-4-((7-fluoro-1H-indazol-4-yl)oxy)-7-((trifluoromethyl)sulfonyl)-2,3-dihydro-1H-inden-1-ol]
150	N#Cc1cncc(Oc2ccc(S(=N)(=O)C(F)(F)F)c3c2CC(F)(F)[C@H]3O)c1 (stereo partly drawn) [Compound 314, 5-(((1S)-2,2-difluoro-1-hydroxy-7-(S-(trifluoromethyl)sulfonimidoyl)-2,3-dihydro-1H-inden-4-yl)oxy)nicotinonitrile]
19400	CS(=O)(=O)c1ccc(Oc2cc(F)cc(C#N)c2)c2c1C(=O)C(F)(Cl)C2 (stereo not shown) [Compound 269, 3-((2-chloro-2-fluoro-7-(methylsulfonyl)-1-oxo-2,3-dihydro-1H-inden-4-yl)oxy)-5-fluorobenzonitrile]
2950	N#Cc1cc(F)cc(Oc2ccc(S(=O)(=O)CCO)c3c2CC(F)(F)C3O)c1 (stereo not shown) [Compound 250, 3-((2,2-Difluoro-1-hydroxy-7-((2-hydroxyethyl)sulfonyl)-2,3-dihydro-1H-inden-4-yl)oxy)-5-fluorobenzonitrile]
1100	CS(=O)(=O)c1ccc(Oc2cncc(C#N)c2)c2c1[C@H](O)[C@H](F)C2 [Compound 313, 5-(((1S,2R)-2-fluoro-1-hydroxy-7-(methylsulfonyl)-2,3-dihydro-1H-inden-4-yl)oxy)nicotinonitrile]
1470	CS(=O)(=O)c1ccc(Oc2cc(C#N)cc(C(F)F)c2)c2c1C(O)CC2 (stereo not shown) [Compound 249, 3-(Difluoromethyl)-5-((1-hydroxy-7-(methylsulfonyl)-2,3-dihydro-1H-inden-4-yl)oxy)benzonitrile]
100	CS(=O)(=O)c1ccc(Oc2cc(F)cc(C#N)c2)c2c1[C@H](O)C(F)(Cl)C2 (stereo partly drawn) [Compound 270, 3-(((1S)-2-chloro-2-fluoro-1-hydroxy-7-(methylsulfonyl)-2,3-dihydro-1H-inden-4-yl)oxy)-5-fluorobenzonitrile]
630	CS(=O)(=O)c1ccc(Oc2cc(F)cc(C#N)c2)c2c1[C@H](O)C(F)(F)[C@@H]2O [Compound 312, 3-[(1S,3R)-2,2-difluoro-1,3-dihydroxy-7-methylsulfonyl-indan-4-yl]oxy-5-fluoro-benzonitrile]
390	CS(=O)(=O)c1ccc(Oc2cc(F)cc(C#N)c2)c2c1[C@H](O)C[C@@H]2F [Compound 295, 3-fluoro-5-[(1R,3S)-3-fluoro-1-hydroxy-7-methylsulfonyl-indan-4-yl]oxy-benzonitrile]

Same assay, conditions: 24 h, read-out: Mean Luciferease EC50

EC50 [nM]	SMILES
23	CS(=O)(=O)c1ccc(Oc2cc(F)cc(C#N)c2)c2c1[C@H](O)C(F)(F)C2 [Compound 163, (S)-3-((2,2-Difluoro-1-hydroxy-7-(methylsulfonyl)-2,3-dihydro-1H-inden-4-yl)oxy)-5-fluorobenzonitrile]
350	N#Cc1cccc(Oc2ccc(S(=O)(=O)C(F)F)c3c2CC[C@H]3O)c1 [Compound 156, 3-[(1R)-7-(Difluoromethylsulfonyl)-1-hydroxy-indan-4-yl]oxybenzonitrile]
62	CCS(=O)(=O)c1ccc(Oc2cc(F)cc(C#N)c2)c2c1[C@H](O)C(F)(F)C2 [Compound 206, (S)-3-((7-(Ethylsulfonyl)-2,2-difluoro-1-hydroxy-2,3-dihydro-1H-inden-4-yl)oxy)-5-fluorobenzonitrile]
3500	CS(=O)(=O)c1ccc(Oc2cc(F)cc(C#N)c2)c2c1[C@@H](O)C(F)(F)C2 [Compound 226, (R)-3-((2,2-Difluoro-1-hydroxy-7-(methylsulfonyl)-2,3-dihydro-1H-inden-4-yl)oxy)-5-fluorobenzonitrile]
